Source: ChEMBL document CHEMBL1201862, “PubChem BioAssay data set” (2004)
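Five compound concentrations were applied to cells in 96-well plates for 48 hours; endpoints were derived by simple linear interpolation of the resulting dose-response curve. Abbreviation: GI50, concentration required for 50% inhibition of growth.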 The source made the active and inactive calls. Rule as the data show it: active = GI50 up to about 1.1 µM and inactive = higher.

Tests used:
Assay in all cases: inhibition of tumour cell growth, NCI panel, 48 h
SF-539 = system: SF-539
PC-3 = system: PC-3
MCF7 = system: MCF7
K562 = system: K562
SK-MEL-28 = system: SK-MEL-28
A498 = system: A498
LOX IMVI = system: LOX IMVI
OVCAR-3 = system: OVCAR-3
NCI-H23 = system: NCI-H23
UO-31 = system: UO-31
IGROV-1 = system: IGROV-1
HCT-15 = system: HCT-15
TK-10 = system: TK-10
SK-OV-3 = system: SK-OV-3
NCI-H460 = system: NCI-H460
HCC 2998 = system: HCC 2998
OVCAR-4 = system: OVCAR-4
SW-620 = system: SW-620
OVCAR-8 = system: OVCAR-8
NCI-H522 = system: NCI-H522

SMILES	GI50 (SF-539)	GI50 (PC-3)	GI50 (MCF7)	GI50 (K562)	GI50 (SK-MEL-28)	GI50 (A498)	GI50 (LOX IMVI)	GI50 (OVCAR-3)	GI50 (NCI-H23)	GI50 (UO-31)	GI50 (IGROV-1)	GI50 (HCT-15) [µM]	GI50 (TK-10)	GI50 (SK-OV-3)	GI50 (NCI-H460)	GI50 (HCC 2998)	GI50 (OVCAR-4)	GI50 (SW-620)	GI50 (OVCAR-8)	GI50 (NCI-H522)
COC(=O)C1=C(OC(=O)/C(=C/c2ccccc2)c2ccc([N+](=O)[O-])cc2)C(C(=O)OC)[C@@]2(O)[C@@H](C(=O)OC)[C@H](C)C[C@@H]1[C@@H]2C(=O)OC (stereo not given in full)	51.5 µM (inactive)	> 100 µM (inactive)	> 100 µM (inactive)	> 100 µM (inactive)	> 100 µM (inactive)	> 100 µM (inactive)	> 100 µM (inactive)	> 100 µM (inactive)	> 100 µM (inactive)	> 100 µM (inactive)	> 100 µM (inactive)	> 100	> 100 µM (inactive)	> 100 µM (inactive)	> 100 µM (inactive)	> 100 µM (inactive)	> 100 µM (inactive)	> 100 µM (inactive)	> 100 µM (inactive)	77.3 µM (inactive)
COC(=O)c1c2c(cc3c1CC1(Cc4ccc(C(C)=O)cc4C1)C3)CCC2 (stereo not given)	85.3 µM (inactive)	19.5 µM (inactive)	37.3 µM (inactive)	14.9 µM (inactive)	63.5 µM (inactive)	31.2 µM (inactive)	21.1 µM (inactive)	> 100 µM (inactive)	46.5 µM (inactive)	52.4 µM (inactive)	87.5 µM (inactive)	31.8	> 100 µM (inactive)	63.2 µM (inactive)	42.2 µM (inactive)	> 10 µM (inactive)	41.4 µM (inactive)	28.3 µM (inactive)	68.9 µM (inactive)	21 µM (inactive)
CCSc1nc(COC(=O)NC)c(COC(=O)NC)n1C	98.9 µM (inactive)	> 82 µM (inactive)	> 70.5 µM (inactive)	> 68.1 µM (inactive)	> 100 µM (inactive)	> 67.9 µM (inactive)	> 97.1 µM (inactive)	> 100 µM (inactive)	99.5 µM (inactive)	> 95.9 µM (inactive)	> 79.8 µM (inactive)	> 100	> 100 µM (inactive)	50.7 µM (inactive)	73.1 µM (inactive)	> 85.7 µM (inactive)	> 75.7 µM (inactive)	> 100 µM (inactive)	> 100 µM (inactive)	40.6 µM (inactive)
CCCC(=O)OC1CC(n2cc(F)c(=O)[nH]c2=O)OC1CO (stereo not given)	0.00859 µM (active)	1.48 µM (inactive)	0.036 µM (active)	1.74 µM (inactive)	> 7.21 µM (inactive)	2.07 µM (inactive)	0.0149 µM (active)	3.69 µM (inactive)	0.0682 µM (active)	0.362 µM (active)	> 5.89 µM (inactive)	> 7.64	> 2.67 µM (inactive)	4.08 µM (inactive)	0.0948 µM (active)	0.0202 µM (active)	> 10 µM (inactive)	> 10 µM (inactive)	0.171 µM (active)	6.34 µM (inactive)
COc1ccc(C(c2ccc(OC)cc2)N2C(=O)CCC2C(=O)O)cc1 (stereo not given)	> 100 µM (inactive)	> 100 µM (inactive)	> 100 µM (inactive)	> 100 µM (inactive)	> 100 µM (inactive)	> 100 µM (inactive)	> 100 µM (inactive)	> 100 µM (inactive)	> 100 µM (inactive)	> 100 µM (inactive)	> 100 µM (inactive)	> 100	> 100 µM (inactive)	> 100 µM (inactive)	> 100 µM (inactive)	> 100 µM (inactive)	> 100 µM (inactive)	> 100 µM (inactive)	> 100 µM (inactive)	> 100 µM (inactive)
CCN1C(=O)/C(=C\Nc2ccccc2)S/C1=N/Nc1ncc(CC(=O)Nc2ccccc2C)s1	> 100 µM (inactive)	44.9 µM (inactive)	82.2 µM (inactive)	43.6 µM (inactive)	> 100 µM (inactive)	> 100 µM (inactive)	> 100 µM (inactive)	43.7 µM (inactive)	> 100 µM (inactive)	38.7 µM (inactive)	> 100 µM (inactive)	> 100	75.5 µM (inactive)	> 100 µM (inactive)	29.1 µM (inactive)	91 µM (inactive)	> 100 µM (inactive)	> 100 µM (inactive)	71.6 µM (inactive)	63.8 µM (inactive)
COc1cc2cc(C(=O)N3CC(CCl)c4c3cc(N)c3ccccc43)[nH]c2c(OC)c1OC (stereo not given)	< 0.01 µM (active)	< 0.01 µM (active)	< 0.01 µM (active)	< 0.01 µM (active)	< 0.01 µM (active)	< 0.01 µM (active)	< 0.01 µM (active)	< 0.01 µM (active)	< 0.01 µM (active)	< 0.01 µM (active)	< 0.01 µM (active)	< 0.01	< 0.01 µM (active)	< 0.01 µM (active)	< 0.01 µM (active)	< 0.01 µM (active)	< 0.01 µM (active)	< 0.01 µM (active)	< 0.01 µM (active)	< 0.01 µM (active)
COCOC1/C=C/CCCCC2=C(C)C=C(C1)O2 (stereo not given)	> 100 µM (inactive)	> 100 µM (inactive)	> 100 µM (inactive)	> 100 µM (inactive)	> 100 µM (inactive)	> 100 µM (inactive)	> 100 µM (inactive)	> 100 µM (inactive)	> 100 µM (inactive)	> 100 µM (inactive)	> 100 µM (inactive)	> 100	> 100 µM (inactive)	> 100 µM (inactive)	> 100 µM (inactive)	> 100 µM (inactive)	> 100 µM (inactive)	> 100 µM (inactive)	> 100 µM (inactive)	> 100 µM (inactive)
CCOC(CN=C=S)OCC	> 10 µM (inactive)	> 10 µM (inactive)	9.27 µM (inactive)	7.01 µM (inactive)	> 10 µM (inactive)	> 10 µM (inactive)	> 10 µM (inactive)	> 10 µM (inactive)	> 10 µM (inactive)	> 10 µM (inactive)	> 10 µM (inactive)	> 10	> 10 µM (inactive)	> 10 µM (inactive)	> 10 µM (inactive)	> 10 µM (inactive)	> 10 µM (inactive)	> 10 µM (inactive)	> 10 µM (inactive)	> 10 µM (inactive)
O=C1N[C@@H]2c3c(Br)sc(Br)c3C(=O)[C@@H]2N1	2.52 µM (inactive)	3.05 µM (inactive)	2.62 µM (inactive)	2.1 µM (inactive)	3.78 µM (inactive)	17.3 µM (inactive)	1.93 µM (inactive)	2.59 µM (inactive)	4.43 µM (inactive)	3.53 µM (inactive)	2.26 µM (inactive)	3.16	2.24 µM (inactive)	14.1 µM (inactive)	6.44 µM (inactive)	1.81 µM (inactive)	3.94 µM (inactive)	1.77 µM (inactive)	2.9 µM (inactive)	5.04 µM (inactive)
C=C1C(=O)O[C@H]2C[C@@H]1[C@@H](O)[C@H](O)[C@@H](C)CCCC(C)=CCC[C@@]2(C)O	15.2 µM (inactive)	19.9 µM (inactive)	10.1 µM (inactive)	5.55 µM (inactive)	25.6 µM (inactive)	51.2 µM (inactive)	18.5 µM (inactive)	15.1 µM (inactive)	18.1 µM (inactive)	14.8 µM (inactive)	24.3 µM (inactive)	22.9	14.9 µM (inactive)	62.5 µM (inactive)	23 µM (inactive)	25.3 µM (inactive)	21.9 µM (inactive)	> 10 µM (inactive)	> 10 µM (inactive)	4.24 µM (inactive)
COC(=O)CCC(C)[C@H]1CCC2C3C(C[C@H](OC(C)=O)[C@@]21C)[C@@]1(C)CCC2(C[C@H]1C[C@H]3OC(C)=O)OOC1(CCC(C(C)(C)C)CC1)OO2 (stereo not given in full)	68.7 µM (inactive)	6.7 µM (inactive)	31.4 µM (inactive)	8.69 µM (inactive)	> 100 µM (inactive)	> 100 µM (inactive)	5.25 µM (inactive)	6.85 µM (inactive)	9.42 µM (inactive)	12.4 µM (inactive)	17.1 µM (inactive)	50	17.7 µM (inactive)	> 100 µM (inactive)	5.65 µM (inactive)	46.3 µM (inactive)	15.6 µM (inactive)	12.3 µM (inactive)	12.4 µM (inactive)	21 µM (inactive)
CCOP(=O)(OCC)Oc1c(OC)c2[nH]c(C(=O)OC)cc2c2c(C(=O)O)c[nH]c12	> 100 µM (inactive)	> 100 µM (inactive)	> 100 µM (inactive)	> 100 µM (inactive)	> 100 µM (inactive)	> 100 µM (inactive)	> 100 µM (inactive)	> 100 µM (inactive)	> 100 µM (inactive)	> 100 µM (inactive)	> 100 µM (inactive)	> 100	> 100 µM (inactive)	> 100 µM (inactive)	> 100 µM (inactive)	> 100 µM (inactive)	> 100 µM (inactive)	> 100 µM (inactive)	> 100 µM (inactive)	> 100 µM (inactive)
O=C(C1OC1c1ccc(O)cc1)C12CC3CC(CC(C3)C1)C2 (stereo not given)	45 µM (inactive)	85.5 µM (inactive)	> 55.3 µM (inactive)	23.7 µM (inactive)	> 100 µM (inactive)	> 69.8 µM (inactive)	> 40.2 µM (inactive)	45.1 µM (inactive)	97.9 µM (inactive)	32.1 µM (inactive)	> 86.1 µM (inactive)	53.2	58.3 µM (inactive)	> 100 µM (inactive)	> 80.9 µM (inactive)	> 100 µM (inactive)	51.3 µM (inactive)	27.7 µM (inactive)	50 µM (inactive)	7.29 µM (inactive)
